System: cell-free RNA (cfRNA)
Assay: Total cfRNA in plasma after whole blood storage (Qubit RNA HS fluorometric analysis)
Details: preservative added singly on ACD-A background, 7 days at room temperature, FIG. 6
From the text: Plasma was isolated and cfRNA extracted using a commercially available kit (Qiagen, QIAamp Circulating Nucleic Acid Isolation Kit). Resultant cfRNA was quantified using the Qubit RNA HS Assay (Invitrogen). Results are the mean with standard deviation from 3 healthy donors.
The working hypothesis for the container (e.g., blood collection tube) that comprises a composition of the disclosure was that cell-free RNA (cfRNA), including messenger RNA, micro-RNA, non-coding RNA, etc., is stable in blood plasma via encapsulation within extracellular vesicles (EVs). Thus, because aspects of the disclosure are directed to stabilizing draw-time concentrations of cfRNA, the goal was to maintain the initial concentration of EVs. […] In the experiments, the functional components of the RNAx BCT are the preservatives imidazolidinyl urea (IDU) and α-cyclodextrin. The experiments were designed to test whether each of the foregoing components acted singly (additive effect) or whether the combination provided an unexpected, more pronounced outcome (synergistic effect).
On the background of the basal anti-coagulant, ACD-A, each of the preservatives (i.e., IDU and α-cyclodextrin) was added singly (at the same concentration utilized in the RNAx BCT) or together. […]

**Q.** OC[C@H]1O[C@@H]2O[C@H]3[C@H](O)[C@@H](O)[C@@H](O[C@H]4[C@H](O)[C@@H](O)[C@@H](O[C@H]5[C@H](O)[C@@H](O)[C@@H](O[C@H]6[C@H](O)[C@@H](O)[C@@H](O[C@H]7[C@H](O)[C@@H](O)[C@@H](O[C@H]1[C@H](O)[C@H]2O)O[C@@H]7CO)O[C@@H]6CO)O[C@@H]5CO)O[C@@H]4CO)O[C@@H]3CO [α-cyclodextrin] was tested. Which “effect on increases in total cfRNA levels (in words)” value did it give?
**A.** did limit increases in levels of cfRNA

Source: patent US12378543B2, “Compositions for hemolysis and coagulation regulation and stabilization of extracellular vesicles” (STRECK LLC, priority 2017, dated 2025)
